Test results taken from article PMC10149936, “Cofilin activation in pancreatic acinar cells plays a pivotal convergent role for mediating CCK-stimulated enzyme secretion and growth” (Frontiers in Physiology, 2023).

Key:
AR42J cells = assay: amylase release from AR42J cells (Phadebas); assay type: cell-based; details: Cytochalasin D 10 µM or Paclitaxel 5 µM; for inhibition of CCK-8/A71378-induced amylase secretion: 4 h, CCK-8 and A71378 (0.03 and 1 nM), 30 min; for effect on basal amylase release: AR42J (Figure 13B)
Method: CCK1 receptor transfected Panc-1 (CCK1-R/Panc-1) cells ([Berna et al., 2009]) and AR42J cells, were cultured in DMEM supplemented with 10% FBS and 1% penicillin/streptomycin and in RPMI supplemented with 10% FBS and 1% penicillin/streptomycin, respectively; and split 1:10 weekly with trypsin/EDTA, after washing in PBS. Finally, cells were seeded in 6-well plate and serum starved overnight, until they were 80% confluent. Cells were incubated at 37°C in 5% CO2/95% air. AR42J cells were treated with 100 nM dexamethasone for 72°h, which stimulates their differentiation into exocrine cells ([Logsdon, 1986]).
For siRNA-mediated knockdown, 5 × 10^5 CCK1-R/Panc-1 or AR42J cells were seeded into 6-well plates and incubated for 24 h. Cells were then transfected with 10 nM of siRNA against human SSH1 siRNA against human cofilin (Dharmacon. Lafayette, CO) in Opti-MEM medium for 48 h using Lipofectamine according to the manufacture’s instruction.
Amylase release was performed as described previously ([Sato et al., 1989]; [Ramos-Alvarez and Jensen, 2018]). Amylase activity was determined after 30 min incubation using the Phadebas reagent and was expressed as percentage of the total cellular amylase released into the extracellular medium during the incubation ([Ramos-Alvarez and Jensen, 2018]).
FIGURE 13 Effect of two cofilin inhibitors, Cytochalasin D or Paclitaxel, (A, B), or Cofilin siRNA (C), on the ability of CCK/TPA/A71378-stimulated amylase release form pancreatic acini (A) or AR42J cells (B, C). In (A, B) pancreatic acini and AR42J cells were incubated in the absence or presence of Cytochalasin D (10 µM) or Paclitaxel (5 µM) for 4 h and then incubated with no additions (control) or CCK-8 (0.03, 0.3, 1 and 100 nM), TPA (1 µM) or A71378 (0.03 and 1 nM) for 30 min and then lysed. In (B, C) AR42J cells were treated with Dexamethasone (100 nM) for 72 h, and in (C) AR42J cells were transfected with siRNA Non-targeting Control and siRNA against cofilin for 48 h, and then incubated with no addition (control) or CCK-8 (0.03 and 1 nM) and A71378 (0.03 and 1 nM) for 30 min. Amylase release, expressed as percent of cellular total amylase secreted, was determined after 30 min incubation. Means ± S.E. of at least 3 independent experiments. N.S., No significant.

[1] = tested on: cofilin / total PP2A association; assay: co-immunoprecipitation of cofilin with total PP2A in pancreatic acini; assay type: cell-based, rat; details: for increase in total PP2A co-immunoprecipitation with cofilin: CCK-8 100 nM 3 min, TPA 1 µM 5 min, Figure 8B
Method: For co-immunoprecipitation, 600 μg of protein was incubated with 15 μL of the anti-cofilin antibody (Santa Cruz Biotechnology, Inc. Dallas, TX) and 25 μL of protein A/G agarose beads (Thermo-Fisher Scientific. Waltham, MA) overnight at 4°C under agitation. Samples were washed three times with lysis buffer, re-suspended in 12.5 μL of Sample Buffer, Laemlii 2x concentrate and boiled for 5 min before western blotting.
FIGURE 6 Effect of CCK-8 (100 nM) to alter co-immunoprecipitation of cofilin with total PP2A (A) or PP1 (B). Isolated pancreatic acini were incubated in the absence or presence of CCK-8 (100 nM) for 3 min and then lysed. Equal amounts of protein were co-immunoprecipitated with an anti-cofilin (Santa Cruz, SC-376476) and then subjected to Western blots using anti-PP2A and anti-PP1. Bands were visualized using chemiluminescence and quantified by densitometry. Top: Results of a representative blot of four independent experiments are shown. Bottom: Means ± S.E. of at least 4 independent experiments. Results are expressed as % of basal stimulation of the control group. N.S., No significant. Effect of the lysate, lysis buffer, Protein A/G agarose beads (beads) or Anti-cofilin antibody (Anti-cofilin ab) individually on phospho and total cofilin (pS3), phospho and total PP2A, phospho and total PP1 and tubulin. Lysates were analyzed using cofilin (pS3), Total cofilin, PP2A (pY307), Total PP2A, PP1(pT320), Total PP1 and tubulin. Antibody detecting tubulin was used to verify loading of equal amounts of protein.
FIGURE 8 Effect of a PKD inhibitor, kbNB, or a Src inhibitor, PP2, on the ability of CCK-8 (100 nM) and TPA (1 µM) to stimulate the association of cofilin with either phospho-PP2A (A) or total PP2A (B). Isolated pancreatic acini were incubated in the absence or presence of kbNB (0.1 µM) or PP2 (10 µM) for 3 h and then incubated with no addition (control), CCK-8 (100 nM, 3 min) or TPA (1 μM, 5 min), and then lysed. […] Bands were visualized using chemiluminescence and quantified by densitometry. […] Results are expressed as % of basal stimulation of the control group. […]

C=C1[C@@H](C)[C@H]2[C@H](Cc3ccccc3)NC(=O)[C@]23[C@H](OC(C)=O)/C=C/[C@@](C)(O)C(=O)[C@@H](C)C/C=C/[C@H]3[C@@H]1O [Cytochalasin D]
inhibition of CCK-8/A71378-induced amylase secretion (AR42J cells): completely inhibited | effect on basal amylase release (AR42J cells): Neither of these two cofilin inhibitors influenced basal amylase release

CC(=O)O[C@H]1C(=O)[C@@]2(C)[C@H]([C@H](OC(=O)c3ccccc3)[C@]3(O)C[C@H](OC(=O)[C@H](O)[C@@H](NC(=O)c4ccccc4)c4ccccc4)C(C)=C1C3(C)C)[C@]1(OC(C)=O)CO[C@@H]1C[C@@H]2O [Paclitaxel]
inhibition of CCK-8/A71378-induced amylase secretion (AR42J cells): completely inhibited | effect on basal amylase release (AR42J cells): Neither of these two cofilin inhibitors influenced basal amylase release

CCCCCCCCCCCCCC(=O)O[C@@H]1[C@@H](C)[C@@]2(O)[C@@H](C=C(CO)C[C@]3(O)C(=O)C(C)=C[C@@H]23)[C@H]2C(C)(C)[C@]12OC(C)=O [TPA, 12-O-tetradecanoylphobol-13-acetate]
increase in total PP2A co-immunoprecipitation with cofilin [1]: 40%

COOH-terminal octapeptide of cholecystokinin [CCK-8]
increase in total PP2A co-immunoprecipitation with cofilin [1]: 40% | increase in PP2A immunoprecipitation with cofilin ([1]; CCK-8 100 nM, 3 min, Figure 6): 25%
